Tests used:
[1] = imidazolyl sulfoxide moiety; cited from earlier work
[2] = First-in-man PET brain uptake in healthy volunteers; settings: for peak uptake, whole brain: initial perfusion phase, 1 min p.i., i.v. bolus, healthy volunteers
[3] = test system: monoamino oxidase A; settings: cited from earlier work
[4] = target: hTau-441 fibrils (Homo sapiens, UniProt P10636); assay: Inhibition of [3H]astemizole binding to synthetic hTau-441 fibrils
[5] = test system: monoamino oxidase B; settings: no reference given; cited from earlier work

Sequence of hTau-441 fibrils (P10636 1-441 isoform P10636-8): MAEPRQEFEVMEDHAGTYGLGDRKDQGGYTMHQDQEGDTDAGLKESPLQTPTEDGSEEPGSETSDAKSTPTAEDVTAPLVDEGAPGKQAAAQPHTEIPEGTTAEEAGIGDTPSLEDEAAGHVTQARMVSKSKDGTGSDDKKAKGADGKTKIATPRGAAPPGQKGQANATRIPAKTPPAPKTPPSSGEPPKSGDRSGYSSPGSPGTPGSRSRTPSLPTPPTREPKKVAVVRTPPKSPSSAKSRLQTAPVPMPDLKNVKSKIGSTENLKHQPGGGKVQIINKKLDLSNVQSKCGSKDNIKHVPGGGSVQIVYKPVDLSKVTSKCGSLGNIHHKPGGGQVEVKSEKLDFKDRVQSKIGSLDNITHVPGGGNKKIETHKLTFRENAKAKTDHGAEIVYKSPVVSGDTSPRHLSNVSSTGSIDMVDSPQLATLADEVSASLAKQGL

Which “pKa (N–H-acidity)” value [1] does the source give for Cc1c(OCC(F)(F)[18F])ccnc1C[S+]([O-])c1nc2ccccc2[nH]1 (centres unmarked) [[^18F]1, [^18F]lansoprazole] here?
Its value is roughly 4.

What about the “whole brain activity at 2 min p.i.” value ([2]; 2 min p.i.) of the same compound?
The value was “less than 1.0 % i.D”.

And the “whole brain activity after 90 min” value ([2]; after 90 min)?
The value was “below 0.5%”.

And the “peak uptake, whole brain” value [2]?
Its value is 2.5–3.5 % i.D.

Which “affinity to monoamino oxidase A” value [3] does the source give for [18F]c1ccc(-c2ccc3c(c2)[nH]c2ccncc23)cn1 [[^18F]T807] here?
Its value is “high affinity”.

With Cc1c(OCC(F)(F)[18F])ccnc1C[S+]([O-])c1nc2ccccc2n1C (centres unmarked) [[^18F]2] as the compound, how does the “radioactivity concentration in brain at 10 min” value ([2]; 10 min) read?
Its value is “about 3.0 % of the injected dose”.

And the “radioactivity concentration in brain at 27 min” value ([2]; 27 min)?
The value was ~2.0 % of the injected dose.

What about the “radioactivity concentration in brain at 90 min” value ([2]; 90 min) of the same compound?
The value was ~1.3 % of the injected dose.

And the “peak uptake, whole brain” value [2]?
Its value is 5.0–6.0 % i.D.

Which “htau fibril binding result” value [4] does the source give for Cc1c(OCCF)ccnc1C[S+]([O-])c1nc2ccccc2n1C (centres unmarked) [11t, 2-(((4-(2-Fluoroethoxy)-3-methylpyridin-2-yl)methyl)sulfinyl)-1-methyl-1H-benzoimidazole] here?
The value was “very high affinity”.

For CNc1ccc(-c2ccc3cc(OC[C@H](O)C[18F])ccc3n2)cn1 [[^18F]THK-5351], which “affinity for monoamino oxidase B” value [5] is on record?
Its value is “high affinity”.
